Data published in patent US20090082429A1, “Antimicrobial Compositions and Methods of Use” (priority 2003, published 2009).
In brackets after ≈: the same amount, converted by molar mass. Entries after “also recorded” stand apart in the source; their conditions may differ. Where two headings read alike, the source gives them in different places.

How the values were obtained:
[1] = test system: S. aureus BB568; assay: Minimum inhibitory concentration (MIC) testing in 96-well microtitre trays; format: cell-based
Source text: (§1) Reagents and bacterial strains: 3-O-(−)-epicatechingallate and (+)-catechin were provided by the Tokyo Food Techno Co., Tokyo, Japan. Octanoic acid and oxacillin were purchased from Sigma (Poole, United Kingdom). The acyl-(+)-catechin derivatives and octanoyl-(−)-epicatechin were synthesised as outlined below. S. aureus BB568 (COL-type strain that carries mecA and pT181) and BB551 (methicillin-sensitive) were provided by Professor B. Berger-Baechi. EMRSA-15 and EMRSA-16 were clinical isolates from the Royal Free Hospital, London. Strains of S. aureus can be considered resistant to methicillin in which growth occurs in the presence of 8 microgram/ml methicillin (National Committee for Clinical Laboratory Standards, 1990—Methods for dilution antimicrobial susceptibility tests for bacteria that grow aerobically (second edition). Document M7-A2. NCCLS, Villanova, Pa., U.S.A.).
(§2) S. aureus ATCC29213 was used as the standard.

[2] = test system: EMRSA-16; assay: as above; format: cell-based, S. aureus
Source text: as §1, §2

[3] = test system: EMRSA-15; assay: as above; format: cell-based, S. aureus
Source text: as §1, §2

[4] = test system: EMRSA-16; assay: Bacterial membrane damage (BacLight kit, SYTO 9/propidium iodide) and CFU after 10 min exposure; format: cell-based, S. aureus; details: for Membrane Effect % Control (BacLight) / Delta Log 10 (CFU/ml): 10 min exposure; for Delta Log 10 (CFU/ml): Log10 decrease vs control
Method: Bacterial membrane damage: EMRSA-16 was grown overnight in Mueller-Hinton broth at 37° C. The overnight culture was diluted 1:40 into fresh pre-warmed Mueller-Hinton broth and the diluted culture incubated at 37° C., with aeration (200 rpm), until the optical density at 600 nm (OD600) reached 0.7-0.8. The cells were recovered by centrifugation (10.000×g for 10 min), washed once with filtered-sterilized water, and resuspended to 1:10 the original volume in filter-sterilized water. The culture was further diluted 1:20 into water containing ethanol (1 vol %; the solvent was used to dissolve the compounds) or water containing the catechin. The cells were exposed to the compounds for 10 min (at room temperature and gentle shaking), after which a sample was removed for CFU determination and the remainder of the cells were recovered by centrifugation (10.000×g for 10 min). The cell pellet was washed once with water and then resuspended to an OD670 of 0.15.
Damage to the bacterial cytoplasmic membrane was determined with the reagents (SYTO 9 and propidium iodide) contained in the BacLight kit from Molecular Probes Europe BV (Leiden, The Netherlands). An equal mixture (4.5 microliter each) of SYTO 9 dye and propidium iodide was added to 3 ml of sample in a cuvette and the sample mixed by inversion of the cuvette three times. The sample was maintained in the dark for 15 min and the fluorescence of the two dyes was determined with a spectrofluorometer (Jacso FP-750). Both dyes were excited with a wavelength of 485 nm and the emission of SYTO 9 was read at 530 nm (Em1) and propidium iodide was read at 645 nm (Em2). The ratio of SYTO 9 to propidium iodide emissions (R=Em1/Em2) was expressed as a percentage of the control (BacLight value=[Rsample/Rcontrol]×100). The sample removed for CFU determination was serially diluted in 0.1M phosphate-buffered saline (pH 7.4) then plated onto nutrient agar. The number of colonies on the plates was recorded after 24 h incubation at 37° C. and the results expressed as a Log10 decrease in CFU/ml compared to the control sample.
Staphylococcal membrane damage: Damage to the staphylococcal cytoplasmic membrane was assessed by use of the BacLight kit (Molecular Probes Inc.). The kit makes use of two nucleic acid stains, SYTO-9 and propidium iodide, with different spectral properties and abilities to penetrate intact bacterial membranes. SYTO-9 penetrates both intact and damaged membranes while propidium iodide only penetrates damaged membranes. Cells with intact membranes stain fluorescent green while cells with damaged membranes stain fluorescent red. The ratios of green to red fluorescence, for EMRSA-16 exposed to test compounds, are expressed as a percentage of the control and are given in the table below.

[5] = test system: Erythrocytes from defibrinated Horse blood; assay: Erythrocyte haemolysis; format: cell-based; details: 10 min
Method: Erythrocyte haemolysis: Erythrocytes from defibrinated Horse blood (Oxoid) were collected by centrifugation (6,000×g, 3 min) and washed three to four times in 10 mM Tris-HCI (pH 7.4) containing 0.9% NaCI. The erythrocytes were resuspended to 1% in the wash buffer and 200 microliter of cells was added to 1300 microliter of buffer containing the test compound. The sample was mixed gently for 10 min at room temperature and the intact erythrocytes were removed by centrifugation (6,000×g, 3 min). Haemolysis was evaluated by measuring the absorbance of the supernatant at 540 nm. Cells were added to buffer containing 0.5% NH4OH to give an indication of 100% lysis. The results were expressed as a percentage of absorbance reading for 100% lysis. Buffer containing only washed erythrocytes was used to assess the extent of lysis in the absence of the test compound.
Hemolysis: The amount hemoglobin released from horse blood erythrocytes after exposure to the compounds for 10 min was used to assess the effect of the compounds on eukaryotic membranes.

[6] = test system: S. aureus; assay: MIC testing, summary over the three strains tested; format: cell-based
Source text: as §1, §2

[7] = test system: staphylococcal; details: stated or reported, no test in the patent; cited from earlier work
[8] = test system: S. aureus BB551; assay: Electron microscopy, effect on cell wall morphology; format: cell-based; details: grown overnight in the presence of the compound; electron micrograph
Method: Electron microscopy: S. aureus BB551 was grown overnight at 37° C. in Mueller-Hinton broth in the absence and presence of either epicatechin-(−)-gallate or octanoyl-(+)-catechin. The cells were recovered by centrifugation and washed once in 0.1M phosphate-buffered saline, pH 7.4. Cells were fixed in 1.5% glutaraldehyde for at least 2 h at room temperature, treated with osmium tetroxide and embedded in epoxy resin. Sectioning and staining with uranyl acetate was followed by Reynolds' lead citrate. The ultrathin sections were viewed and photographed using a Philips 201 transmission electron microscope.

[9] = test system: EMRSA-16; assay: Effect on bacterial growth (viable counts, CFU/ml); format: cell-based, S. aureus; details: for reduction in cell numbers: over six hours
Method: Effect on bacterial growth: EMRSA-16 was grown overnight in Mueller-Hinton broth at 37° C. The overnight culture as diluted 1:400 into 50 ml volumes of pre-warmed (37° C.) Mueller-Hinton broth containing various concentrations of contemplated compounds. The control flask contained ethanol (1 vol %). The flasks were incubated at 37° C. with aeration (200 rpm). At two-hour intervals samples were withdrawn from the flasks, serially diluted in 0.1M phosphate-buffered saline (pH 7.4) solutions, and plated onto nutrient agar (Oxoid). The number of colonies was recorded at 24 h incubation at 37° C. and expressed as the number of CFU/ml.

[10] = BB568; oxacillin MIC in the presence of the compound (tested at 0.25×MIC)
[11] = EMRSA-16; oxacillin MIC in the presence of the compound (tested at 0.25×MIC)
[12] = Staphylococcus aureus, 24 h; read-out: MIC Catechin
[13] = EMRSA-15; oxacillin MIC in the presence of the compound (tested at 0.25×MIC)
[14] = Staphylococcus aureus, 24 h, read-out: MIC Catechin
[15] = BB568; MIC of the compound itself; 35° C., 24 h
[16] = EMRSA-16; MIC of the compound itself; 35° C., 24 h
[17] = EMRSA-15; MIC of the compound itself; 35° C., 24 h

CCCCCCCC(=O)O [Octanoic acid]
MIC Oxacillin [1, 10]: 256 MICROGRAM/ML
MIC ([1]; Staphylococcus aureus, BB568, 24 h; read-out: MIC Catechin): 1020 µg/mL (≈ 7100 µM)
MIC Oxacillin [2, 11]: 512 MICROGRAM/ML
MIC [2, 12]: 1020 µg/mL (≈ 7100 µM)
MIC Oxacillin [3, 13]: 32 MICROGRAM/ML
MIC [3, 12]: 1020 µg/mL (≈ 7100 µM)
concentration giving significant membrane damage [4]: > 1024 microgram/ml
Membrane Effect % Control (BacLight) ([4]; 16 mcg/ml): 74%
Delta Log 10 (CFU/ml) ([4]; 16 mcg/ml): −0.1
Membrane Effect % Control (BacLight) ([4]; 32 mcg/ml): 75%
Delta Log 10 (CFU/ml) ([4]; 32 mcg/ml): 0.1
Membrane Effect % Control (BacLight) ([4]; 64 mcg/ml): 2%
Delta Log 10 (CFU/ml) ([4]; 64 mcg/ml): >7.0
hemolysis ([5]; 2×MIC): complete hemolysis
% Hemolysis ([5]; horse, 16 mcg/ml, pH 7.4): 3%
% Hemolysis ([5]; horse, 32 mcg/ml, pH 7.4): 4%
% Hemolysis ([5]; horse, 64 mcg/ml, pH 7.4): 100%
direct activity against S. aureus ([6]; result in words): no direct activity; also recorded: not active
capacity to reduce the oxacillin MIC ([6]; tested at 0.25×MIC): two-fold

CCCCCCCCCCCC(=O)O [dedecanoic acid, dedecanoic acid (lauric acid) (C12:0)]
anti-staphylococcal activity [7]: anti-staphylococcal activity

O=C(O[C@@H]1Cc2c(O)cc(O)cc2O[C@@H]1c1ccc(O)c(O)c1)c1cc(O)c(O)c(O)c1 [(−)-epicatechingallate, 3-O-(−)-epicatechingallate]
MIC Oxacillin [1, 10]: <1 MICROGRAM/ML
MIC Oxacillin ([1]; BB568; oxacillin MIC in the presence of the compound (tested at 0.25×MIC); listed as epicatechin gallate): less than 1 MICROGRAM/ML
MIC ([1]; Staphylococcus aureus, BB568, 24 h, read-out: MIC Catechin): 128 µg/mL (≈ 289 µM)
effect on cell wall morphology [8]: pseudomulticellular aggregates with increased cell wall thickening
MIC Oxacillin [2, 11]: 1 MICROGRAM/ML
MIC [2, 14]: 128 µg/mL (≈ 289 µM)
MIC Oxacillin [3, 13]: 1 MICROGRAM/ML
MIC [3, 14]: 128 µg/mL (≈ 289 µM)
effect on cell viability ([4]; 4× and 8×MIC, 10 min): little effect on cell viability
membrane permeability ([4]; 4×MIC): 48%
membrane permeability ([4]; 8×MIC): 64%
Membrane Effect % Control (BacLight) ([4]; 512 mcg/ml): 48%
Delta Log 10 (CFU/ml) ([4]; 512 mcg/ml): 0.0
Membrane Effect % Control (BacLight) ([4]; 1024 mcg/ml): 64%
Delta Log 10 (CFU/ml) ([4]; 1024 mcg/ml): 0.1
hemolysis ([5]; 4×MIC): did not give rise to hemolysis
hemolysis ([5]; 8×MIC): 21%
% Hemolysis ([5]; 512 mcg/ml): 6%
% Hemolysis ([5]; 1024 mcg/ml): 21%
reduction in cell numbers ([9]; 512 microgram/ml): 0.3 Log10
reduction in cell numbers ([9]; 1024 microgram/ml): 0.85 Log10
reduction in CFU/ml ([9]; 1024 microgram/ml, over the 24 h period): 5 Log10
reduction in viable cell numbers ([9]; over the first two hour period, even at 8×MIC): did not give rise to a large reduction in viable cell numbers
MIC ([6]; Staphylococcus aureus): 64 to 128 µg/mL (≈ 145 to 289 µM)
direct antistaphylococcal activity relative to (+)-catechin ([6]; greater activity than (+)-catechin): at least 4 fold

CCCCC/C=C\C/C=C\CCCCCCCC(=O)O [linoleic acid, linoleic acid (C18:8)]
anti-staphylococcal activity [7]: anti-staphylococcal activity

Cc1onc(-c2ccccc2)c1C(=O)N[C@@H]1C(=O)N2[C@@H]1SC(C)(C)[C@@H]2C(=O)O [Oxacillin, oxacillin]
MIC ([1]; Staphylococcus aureus; BB568; oxacillin alone; read-out: MIC Oxacillin): 256 µg/mL (≈ 638 µM)
MIC ([2]; Staphylococcus aureus; EMRSA-16; oxacillin alone; read-out: MIC Oxacillin): 512 µg/mL (≈ 1280 µM)
MIC ([3]; Staphylococcus aureus; EMRSA-15; oxacillin alone; read-out: MIC Oxacillin): 32 µg/mL (≈ 79.7 µM)

O=C(O)c1cc(O)c(O)c(O)c1 [Gallic acid]
anti-staphylococcal activity [7]: no anti-staphylococcal activity

CCCCCCCCCC=CCCCCC(=O)O (single isomer, unassigned) [palmitoleic acid isomer (C16:1delta6)]
anti-staphylococcal activity [7]: anti-staphylococcal activity

CCCCCCCCCCCCCCCCCC(=O)O[C@H]1Cc2c(O)cc(O)cc2O[C@@H]1c1ccc(O)c(O)c1 [3-O-staeoryl-(+)-catechin, 3-O-stearoyl-(+)-catechin]
MIC Catechin [1, 15]: 32 MICROGRAM/ML
MIC Oxacillin [1, 10]: 256 MICROGRAM/ML
MIC Catechin [2, 16]: >32 MICROGRAM/ML
MIC Oxacillin [2, 11]: 512 MICROGRAM/ML
MIC Catechin [3, 17]: >32 MICROGRAM/ML
MIC Oxacillin [3, 13]: 32 MICROGRAM/ML

Oc1cc(O)c2c(c1)O[C@H](c1ccc(O)c(O)c1)[C@@H](O)C2 [(+)-catechin]
MIC Catechin [1, 15]: >256 MICROGRAM/ML
MIC Oxacillin [1, 10]: 256 MICROGRAM/ML
MIC Catechin [2, 16]: >256 MICROGRAM/ML
MIC Oxacillin [2, 11]: 512 MICROGRAM/ML
MIC Catechin [3, 17]: >256 MICROGRAM/ML
MIC Oxacillin [3, 13]: 32 MICROGRAM/ML
MIC ([6]; the three strains tested): > 256 microgram/ml
